Data published in patent publication US10800767B2, “Thyroid hormone receptor beta agonist compounds” (Terns, Inc., priority 2018, dated 2020).

Tests used:
[1] = biological target: TR beta-LBD (thyroid hormone receptor beta) (Homo sapiens (Human), UniProt P10828); test: LanthaScreen TR-FRET Thyroid Receptor beta Coactivator Assay (agonist screening); type: biochemical; settings: for THRβ-Selectivity: THR beta over THR alpha, derived from T3-selectivity normalized data; for EC50: TR-FRET coactivator assay, TR beta-LBD 1.0 nM, 2 hour incubation, average of duplicate runs, read-out: EC50 THRβ-FRET
Chain of TR beta-LBD (thyroid hormone receptor beta) (P10828 217-461): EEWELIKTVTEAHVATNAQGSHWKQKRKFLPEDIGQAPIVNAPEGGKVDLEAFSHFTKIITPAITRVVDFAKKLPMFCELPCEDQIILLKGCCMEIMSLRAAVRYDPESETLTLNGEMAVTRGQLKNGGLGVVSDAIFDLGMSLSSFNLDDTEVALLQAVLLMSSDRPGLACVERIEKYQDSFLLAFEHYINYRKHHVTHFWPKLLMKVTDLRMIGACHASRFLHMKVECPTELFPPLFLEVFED
Procedure: (§1) Example B1: Time-Resolved Fluorescence Resonance Energy Transfer (TR-FRET) Assay for Thyroid Hormone Receptor Agonist Screening
(§2) LanthaScreen™ TR-FRET Thyroid Receptor alpha Coactivator Assay kit (ThermoFisher) and LanthaScreen™ TR-FRET Thyroid Receptor beta Coactivator Assay kit (ThermoFisher) were used for agonist compound screening. Compounds in DMSO were diluted using ECHO Liquid Handler (Labcyte Inc.) into 384 plates in 10-point 3-fold series in duplicate (5 micro M final top concentration). Buffer C (ThermoFisher) was added to each well before the 4× mixture of fluorescein-SCR2-2 coactivator (200 nM final concentration), Terbium-labeled anti-GST antibody (2 nM final concentration), and TR alpha-LBD (0.4 nM final concentration) or TR beta-LBD (1.0 nM final concentration) was added. After 2 hour incubation at room temperature in dark, the TR-FRET signal was measured on an EnVision plate reader (PerkinElmer) with excitation at 340 nm and dual emission readout at 495 and 520 nm with the delay time of 100 micro second and the integration time of 200 micro second. The ratio of emission signal at 520 and at 495 was used to calculate EC50 using GraphPad Prism (GraphPad Software). In every batch of compound screening, T3 (L-3,3′,5-Triiodothyronine sodium salt, >95%) (Calbiochem) was used as reference compound. The EC50 of T3 measured were within 3-fold of the reference value provided by the assay kit manufacturer (ThermoFisher Scientific). The Z′ factors measured in every batch of screening using T3 as high percent effect (HPE) control and 0.5% DMSO as zero percent effect (ZPE) control were in the range of 0.5 to 0.8. Compounds' THR-beta selectivity values are derived from T3-selectivity normalized data.

[2] = biological target: TR alpha-LBD (thyroid hormone receptor alpha) (Homo sapiens (Human), UniProt P10827); test: LanthaScreen TR-FRET Thyroid Receptor alpha Coactivator Assay (agonist screening); type: biochemical; settings: TR alpha-LBD 0.4 nM, 2 hour incubation, average of duplicate runs, read-out: EC50 THRα-FRET
Chain of TR alpha-LBD (thyroid hormone receptor alpha) (P10827 other isoform, or with tags, fused parts or gaps del 1-162, other chains not shown): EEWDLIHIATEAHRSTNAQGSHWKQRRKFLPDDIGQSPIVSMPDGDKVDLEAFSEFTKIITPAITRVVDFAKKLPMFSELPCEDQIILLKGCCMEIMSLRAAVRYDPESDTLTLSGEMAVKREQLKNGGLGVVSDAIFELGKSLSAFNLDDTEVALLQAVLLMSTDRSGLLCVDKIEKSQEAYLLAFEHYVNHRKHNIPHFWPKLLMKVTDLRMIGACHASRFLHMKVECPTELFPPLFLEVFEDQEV
Procedure: as §1, §2

## CC(C)c1cc(Oc2c(Cl)cc(NC(=O)c3noc(=O)[nH]3)c3c2CCC3)nn(C)c1=O [Example 24, N-(6-chloro-7-((5-isopropyl-1-methyl-6-oxo-1,6-dihydropyridazin-3-yl)oxy)-2,3-dihydro-1H-inden-4-yl)-5-oxo-4,5-dihydro-1,2,4-oxadiazole-3-carboxamide]
[1]
  THRβ-Selectivity: 39.5
  EC50: 188 nM
[2]
  EC50: 2050 nM

## O=C(Nc1cc(Cl)c(Oc2cc(C3CC3)c(=O)[nH]n2)c(Cl)c1)c1noc(=O)[nH]1 [Example 25, N-(3,5-dichloro-4-((5-cyclopropyl-6-oxo-1,6-dihydropyridazin-3-yl)oxy)phenyl)-5-oxo-4,5-dihydro-1,2,4-oxadiazole-3-carboxamide]
[1]
  THRβ-Selectivity: 42.1
  EC50: 231 nM
[2]
  EC50: 2420 nM

## CC(C)c1cc(Oc2c(Cl)cc(NC(=O)c3noc(=O)[nH]3)c(F)c2Cl)nn(C)c1=O [Example 26, N-(3,5-dichloro-2-fluoro-4-((5-isopropyl-1-methyl-6-oxo-1,6-dihydropyridazin-3-yl)oxy)phenyl)-5-oxo-4,5-dihydro-1,2,4-oxadiazole-3-carboxamide]
[1]
  THRβ-Selectivity: 44.6
  EC50: 58.1 nM
[2]
  EC50: 699 nM

## CC(C)c1cc(Oc2c(Cl)cc(NCc3noc(=O)[nH]3)c(F)c2Cl)nn(C)c1=O [Example 27, 3-(((3,5-dichloro-2-fluoro-4-((5-isopropyl-1-methyl-6-oxo-1,6-dihydropyridazin-3-yl)oxy)phenyl)amino)methyl)-1,2,4-oxadiazol-5(4H)-one]
[1]
  THRβ-Selectivity: 21.5
  EC50: 26.8 nM
[2]
  EC50: 144 nM

## CC(C)(C)c1cc(Oc2c(Cl)cc(NC(=O)c3noc(=O)[nH]3)cc2Cl)n[nH]c1=O [Example 28, N-(4-((5-(tert-butyl)-6-oxo-1,6-dihydropyridazin-3-yl)oxy)-3,5-dichlorophenyl)-5-oxo-4,5-dihydro-1,2,4-oxadiazole-3-carboxamide]
[1]
  THRβ-Selectivity: 67
  EC50: 286 nM
[2]
  EC50: 4260 nM

## CC(O)c1cc(Oc2c(Cl)cc(NC(=O)c3noc(=O)[nH]3)cc2Cl)n[nH]c1=O (stereo not drawn) [Example 29, N-(3,5-dichloro-4-((5-(1-hydroxyethyl)-6-oxo-1,6-dihydropyridazin-3-yl)oxy)phenyl)-5-oxo-4,5-dihydro-1,2,4-oxadiazole-3-carboxamide]
[1]
  THRβ-Selectivity: 88.9
  EC50: 235 nM
[2]
  EC50: 4340 nM

## C[C@@H](O)c1cc(Oc2c(Cl)cc(NC(=O)c3noc(=O)[nH]3)cc2Cl)n[nH]c1=O [Example 29P1, (R)—N-(3,5-dichloro-4-((5-(1-hydroxyethyl)-6-oxo-1,6-dihydropyridazin-3-yl)oxy)phenyl)-5-oxo-4,5-dihydro-1,2,4-oxadiazole-3-carboxamide]
[1]
  THRβ-Selectivity: >10.4
  EC50: 2640 nM
[2]
  EC50: > 5000 nM

## C[C@H](O)c1cc(Oc2c(Cl)cc(NC(=O)c3noc(=O)[nH]3)cc2Cl)n[nH]c1=O [Example 29P2, (S)—N-(3,5-dichloro-4-((5-(1-hydroxyethyl)-6-oxo-1,6-dihydropyridazin-3-yl)oxy)phenyl)-5-oxo-4,5-dihydro-1,2,4-oxadiazole-3-carboxamide]
[1]
  THRβ-Selectivity: 80.8
  EC50: 91.3 nM
[2]
  EC50: 1760 nM

## Cc1cc(NC(=O)c2noc(=O)[nH]2)cc(C)c1Cc1cc(C(C)C)c(=O)[nH]n1 [Example 30, N-(4-((5-isopropyl-6-oxo-1,6-dihydropyridazin-3-yl)methyl)-3,5-dimethylphenyl)-5-oxo-4,5-dihydro-1,2,4-oxadiazole-3-carboxamide]
[1]
  THRβ-Selectivity: 14.3
  EC50: 821 nM
[2]
  EC50: 3110 nM

## O=C(Nc1cc(Cl)c(Oc2cc(C34CC(C3)C4)c(=O)[nH]n2)c(Cl)c1)c1noc(=O)[nH]1 [Example 31, N-(4-((5-(bicyclo[1.1.1]pentan-1-yl)-6-oxo-1,6-dihydropyridazin-3-yl)oxy)-3,5-dichlorophenyl)-5-oxo-4,5-dihydro-1,2,4-oxadiazole-3-carboxamide]
[1]
  THRβ-Selectivity: >34.8
  EC50: 600 nM
[2]
  EC50: > 5000 nM

## CCC(O)c1cc(Oc2c(Cl)cc(NC(=O)c3noc(=O)[nH]3)cc2Cl)n[nH]c1=O (stereo not drawn) [Example 32, N-(3,5-dichloro-4-((5-(1-hydroxypropyl)-6-oxo-1,6-dihydropyridazin-3-yl)oxy)phenyl)-5-oxo-4,5-dihydro-1,2,4-oxadiazole-3-carboxamide]
[1]
  THRβ-Selectivity: 77.9
  EC50: 86.4 nM
[2]
  EC50: 1550 nM

## CC[C@@H](O)c1cc(Oc2c(Cl)cc(NC(=O)c3noc(=O)[nH]3)cc2Cl)n[nH]c1=O [Example 32P1, (R)—N-(3,5-dichloro-4-((5-(1-hydroxypropyl)-6-oxo-1,6-dihydropyridazin-3-yl)oxy)phenyl)-5-oxo-4,5-dihydro-1,2,4-oxadiazole-3-carboxamide]
[1]
  THRβ-Selectivity: 27.9
  EC50: 450 nM
[2]
  EC50: 4230 nM

## CC[C@H](O)c1cc(Oc2c(Cl)cc(NC(=O)c3noc(=O)[nH]3)cc2Cl)n[nH]c1=O [Example 32P2, (S)—N-(3,5-dichloro-4-((5-(1-hydroxypropyl)-6-oxo-1,6-dihydropyridazin-3-yl)oxy)phenyl)-5-oxo-4,5-dihydro-1,2,4-oxadiazole-3-carboxamide]
[1]
  THRβ-Selectivity: 81
  EC50: 43.3 nM
[2]
  EC50: 1150 nM

## CC(C)(O)c1cc(Oc2c(Cl)cc(NC(=O)c3noc(=O)[nH]3)cc2Cl)n[nH]c1=O [Example 33, N-(3,5-dichloro-4-((5-(2-hydroxypropan-2-yl)-6-oxo-1,6-dihydropyridazin-3-yl)oxy)phenyl)-5-oxo-4,5-dihydro-1,2,4-oxadiazole-3-carboxamide]
[1]
  THRβ-Selectivity: >84.3
  EC50: 212 nM
[2]
  EC50: > 5000 nM

## CC(C)c1cc(Oc2c(Cl)cc(NC(=O)c3noc(=O)[nH]3)c(F)c2Cl)n[nH]c1=O [Example 34, N-(3,5-dichloro-2-fluoro-4-((5-isopropyl-6-oxo-1,6-dihydropyridazin-3-yl)oxy)phenyl)-5-oxo-4,5-dihydro-1,2,4-oxadiazole-3-carboxamide]
[1]
  THRβ-Selectivity: 10.9
  EC50: 166 nM
[2]
  EC50: 577 nM

## CC(CO)c1cc(Oc2c(Cl)cc(NC(=O)c3noc(=O)[nH]3)cc2Cl)nn(C)c1=O (stereo not drawn) [Example 35, N-(3,5-dichloro-4-((5-(1-hydroxypropan-2-yl)-1-methyl-6-oxo-1,6-dihydropyridazin-3-yl)oxy)phenyl)-5-oxo-4,5-dihydro-1,2,4-oxadiazole-3-carboxamide]
[1]
  THRβ-Selectivity: 15.8
  EC50: 762 nM
[2]
  EC50: 2600 nM

## CC(CO)c1cc(Oc2c(Cl)cc(NC(=O)c3noc(=O)[nH]3)cc2Cl)n[nH]c1=O (stereo not drawn) [Example 36, N-(3,5-dichloro-4-((5-(1-hydroxypropan-2-yl)-6-oxo-1,6-dihydropyridazin-3-yl)oxy)phenyl)-5-oxo-4,5-dihydro-1,2,4-oxadiazole-3-carboxamide]
[1]
  THRβ-Selectivity: >15.7
  EC50: 468 nM
[2]
  EC50: > 5000 nM

## Cn1nc(Oc2c(Cl)cc(NC(=O)c3noc(=O)[nH]3)cc2Cl)cc(C(C)(C)O)c1=O [Example 37, N-(3,5-dichloro-4-((5-(2-hydroxypropan-2-yl)-1-methyl-6-oxo-1,6-dihydropyridazin-3-yl)oxy)phenyl)-5-oxo-4,5-dihydro-1,2,4-oxadiazole-3-carboxamide]
[1]
  THRβ-Selectivity: 15.5
  EC50: 34.5 nM
[2]
  EC50: 212 nM
